Experimental data from patent US20230172206A1 (BASF SE, priority 2020, published 2023).

How the values were obtained:
[1] = tested on: Phakopsora pachyrhizi (F129L); assay: Protective control of soybean rust on soybeans (PHAKPA P2); assay type: in vivo; conditions: for % PHAKPA (F129L) Disease level P2 at 4 ppm: protective P2, 4 ppm; for % PHAKPA (F129L) Disease level P2 at 4 ppm / % PHAKPA (F129L) Disease level P2 at 16 ppm: F129L isolate; for % PHAKPA (F129L) Disease level P2 at 16 ppm: protective P2, 16 ppm
[2] = tested on: Phakopsora pachyrhizi (F129L); assay: Protective control of soybean rust on soybeans (PHAKPA P6); assay type: in vivo; conditions: for % PHAKPA (F129L) Disease level P6 at 4 ppm: protective P6, 4 ppm; for % PHAKPA (F129L) Disease level P6 at 4 ppm / % PHAKPA (F129L) Disease level P6 at 16 ppm: F129L isolate; for % PHAKPA (F129L) Disease level P6 at 16 ppm: protective P6, 16 ppm
[3] = tested on: Phakopsora pachyrhizi (wt); assay: Protective control of soybean rust on detached soybean leaves (PHAKPA P1 DL), Qo inhibitor-sensitive wt isolate; assay type: in vivo
[4] = tested on: Phakopsora pachyrhizi (F129L); assay: Protective control of soybean rust on detached soybean leaves (PHAKPA P1 DL), F129L isolate; assay type: in vivo
Cercospora sojina = assay type: cell-based; conditions: 4 ppm, 7 days after inoculation, relative to compound-free control (100%)
Alternaria solani (wt) = assay type: cell-based; conditions: 0.016 ppm, 7 days after inoculation, relative to compound-free control (100%)
[5] = tested on: Alternaria solani (F129L); assay: Micro titer plate test against early blight (ALTESO F129L); assay type: cell-based; conditions: 7 days after inoculation, relative to compound-free control (100%)
Septoria tritici = assay: Micro titer plate test against leaf blotch on wheat (SEPTTR); assay type: cell-based; conditions: 0.25 ppm, 7 days after inoculation, relative to compound-free control (100%)

Structure (SMILES)	% PHAKPA (F129L) Disease level P2 at 4 ppm [1]	% PHAKPA (F129L) Disease level P2 at 16 ppm [1]	% PHAKPA (F129L) Disease level P6 at 4 ppm [2]	% PHAKPA (F129L) Disease level P6 at 16 ppm [2]	Fungal growth (%) CERCSO (Cercospora sojina)	further results
CO/C=C(/C(=O)OC)c1cccc(C)c1CO/N=C(\C)c1ccc(Cl)c(F)c1OC(F)(F)F [compound 452]	60%	6%	70%	14%	–	–
CNC(=O)/C(=N/OC)c1cccc(C)c1CO/N=C(/c1ccccc1)C(F)(F)F [compound 458]	93%	57%	83%	50%	–	–
CNC(=O)/C(=N/OC)c1cccc(OC)c1CO/N=C(\C)c1cccc(C(F)(F)F)c1 [compound 461]	26%	2%	52%	6%	–	–
CO/C=C(/C(=O)OC)c1cccc(C)c1CO/N=C(\C)c1ccccc1OC(F)(F)F [compound 462]	37%	6%	55%	10%	–	–
CO/C=C(/C(=O)OC)c1cccc(C)c1CO/N=C(\C)c1ccc(OC(F)(F)F)cc1Cl [compound 463]	6%	0%	3%	0%	–	–
CO/C=C(/C(=O)OC)c1cccc(C)c1CO/N=C(\C)c1ccc(OC)cc1C(F)(F)F [compound 464]	1%	0%	8%	0%	–	–
Cc1cccc(-n2nnn(C)c2=O)c1COc1ccn(-c2ccc(Cl)cc2)n1 [drawing 932, reference compound]	–	–	–	–	–	PHAKPA P1 DL Disease level (%) Qo I-sensitive wt isolate (0 % F129L) ([3]; test concentration 0.3 ppm): 78%; PHAKPA P1 DL Disease level (%) Qo I-sensitive wt isolate (0 % F129L) ([3]; test concentration 1 ppm): 80%; PHAKPA P1 DL Disease level (%) Qo I-sensitive wt isolate (0 % F129L) ([3]; test concentration 3 ppm): 77%; PHAKPA P1 DL Disease level (%) Qo I-sensitive wt isolate (0 % F129L) ([3]; test concentration 10 ppm): 48%; PHAKPA P1 DL Disease level (%) Qo I-sensitive wt isolate (0 % F129L) ([3]; test concentration 30 ppm): 30%; PHAKPA P1 DL Disease level (%) Qo I-sensitive wt isolate (0 % F129L) ([3]; test concentration 100 ppm): 18%; PHAKPA P1 DL Disease level (%) Qo I-sensitive wt isolate (0 % F129L) ([3]; test concentration 300 ppm): 5%
Cc1cccc(-n2nnn(C)c2=O)c1COc1ccn(-c2ccc(Cl)cc2)n1 [drawing 934, reference compound]	–	–	–	–	–	PHAKPA P1 DL Disease level (%) Qo I-resistant F129L isolate (100 % F129L) ([4]; test concentration 0.3 ppm): 88%; PHAKPA P1 DL Disease level (%) Qo I-resistant F129L isolate (100 % F129L) ([4]; test concentration 1 ppm): 90%; PHAKPA P1 DL Disease level (%) Qo I-resistant F129L isolate (100 % F129L) ([4]; test concentration 3 ppm): 95%; PHAKPA P1 DL Disease level (%) Qo I-resistant F129L isolate (100 % F129L) ([4]; test concentration 10 ppm): 92%; PHAKPA P1 DL Disease level (%) Qo I-resistant F129L isolate (100 % F129L) ([4]; test concentration 30 ppm): 90%; PHAKPA P1 DL Disease level (%) Qo I-resistant F129L isolate (100 % F129L) ([4]; test concentration 100 ppm): 65%; PHAKPA P1 DL Disease level (%) Qo I-resistant F129L isolate (100 % F129L) ([4]; test concentration 300 ppm): 52%
CO/N=C(/C(=O)OC)c1cccc(C)c1CO/N=C(\C)c1cccc(OC(F)(F)F)c1 [drawing 936]	–	–	–	–	33%	Fungal growth (%) ALTESO wt (Alternaria solani (wt)): 94%
CO/N=C(/C(=O)OC)c1cccc(C)c1CO/N=C(\C)c1cccc(OC(F)(F)F)c1 [drawing 940]	–	–	–	–	–	Fungal growth (%) ALTESO F129L ([5]; 4 ppm): 87%
CNC(=O)/C(=N/OC)c1cccc(C)c1CO/N=C(\OC)c1cccc(C(F)(F)F)c1 [drawing 950]	–	–	–	–	60%	–
CO/N=C(/C(=O)OC)c1cccc(C)c1CO/N=C(\SC)c1cccc(C)c1 [drawing 952]	–	–	–	–	–	Fungal growth (%) SEPTTR (Septoria tritici): 61%
CO/N=C(/C(=O)OC)c1cccc(C)c1CO/N=C(/c1cccc(C)c1)C1CC1 [drawing 953]	–	–	–	–	–	Fungal growth (%) SEPTTR (Septoria tritici): 89%
CO/N=C(/C(=O)OC)c1cccc(C)c1CO/N=C(\SC)c1cccc(C)c1 [drawing 955]	–	–	–	–	71%	Fungal growth (%) ALTESO F129L ([5]; 0.016 ppm): 66%; Fungal growth (%) ALTESO wt (Alternaria solani (wt)): 67%
CO/N=C(/C(=O)OC)c1cccc(C)c1CO/N=C(/c1cccc(C)c1)C1CC1 [drawing 957]	–	–	–	–	87%	Fungal growth (%) ALTESO F129L ([5]; 0.016 ppm): 87%; Fungal growth (%) ALTESO wt (Alternaria solani (wt)): 100%
CO/N=C(/C(=O)OC)c1cccc(C)c1CO/N=C(\SC)c1cccc(Cl)c1 [drawing 965]	–	–	–	–	62%	–
CO/N=C(/C(=O)OC)c1cccc(C)c1CO/N=C(/c1cccc(Cl)c1)C1CC1 [drawing 966]	–	–	–	–	61%	–
CNC(=O)/C(=N/OC)c1cccc(C)c1CO/N=C(\SC)c1cccc(Cl)c1 [drawing 970]	–	–	–	–	78%	–
CNC(=O)/C(=N/OC)c1ccccc1CO/N=C(\C)c1cc(F)ccc1F [reference compound]	–	–	–	–	–	PHAKPA (F129L) Disease level (%) P2 at 16 ppm ([1]; protective, inoculation 2 days after spraying, 16 ppm, % diseased leaf area): 1%; PHAKPA (F129L) Disease level (%) P6 at 16 ppm ([2]; protective, inoculation six days after spraying, 16 ppm, % diseased leaf area): 22%
